This note sets out measurements from PMC8398714, “Synthesis and Evaluation of Biological Activities of Bis(spiropyrazolone)cyclopropanes: A Potential Application against Leishmaniasis” (Molecules, 2021).

Data set [1] can be described thus: Cytotoxicity, MTT assay on RAW 264.7 macrophages. Format: cell-based. The note with it: mouse. Here is the method:
Raw 264.7 (ATCC® TIB-71™) was maintained in Dulbecco’s Modified Eagle Medium (DMEM) (Gibco, Invitrogen, Gibco, Carlsbad, CA, USA) supplemented with 10% fetal bovine serum (FBS) (Eurobio, Les Ulis, France) and 100 IU/mL penicillin + 100 μg/mL streptomycin (Gibco), at 37 °C in a 5% CO2 atmosphere. The medium was renewed once a week. The viability was determined using MTT (Thiazolyl Blue Tetrazolium Bromide) dye assay as described before for leishmanicidal activity assessment, with some variations. Here, 5 × 10^4 cells/well in a final volume of 100 µL were deposited into a 96-well plate, in triplicate. Saponin (2.4 mg/mL) and untreated cells were used as positive control and negative control, respectively. A stock solution was prepared in DMSO and immediately diluted in media to obtain different serial concentrations (100–0.01 µM). After 48 h exposure to the compounds, 10 µL/well of MTT (5 mg/mL MTT in PBS) were added, and the plate was incubated at 37 °C for 2 h in the dark. Cells were pelleted by centrifugation at 4400 rpm for 10 min and the media was removed. Then, 100 µL/well of DMSO were added and the absorbance at 570 nm was recorded; a reference wavelength of 630 nm was used for background subtraction.
(In general: Tetrazolium assays rely on reduction of a dye to a coloured formazan, in cell work by metabolically active cells.)

In another data set the test system is MCF-7. Kind of data set: MTS cell viability assay on MCF-7 cells. Format: cell-based. The note with it: Homo sapiens, MCF7, 48 h, Dox 1 µM, mean ± SEM, NA = no activity, read-out: Percentage (%) of inhibition, MCF-7. Here is the method: (§1) Five tumor human cancer cell lines—cerebral astrocytoma (D-384), grade IV prostatic adenocarcinoma (PC-3), mammary adenocarcinoma (MCF-7), human colon carcinoma (RKO) and lung carcinoma (A-549)—along with one immortalized hamster cell line (CHO K-1) were used. The cells PC-3, MCF-7 and RKO were cultured in RPMI-1640, D-384 on DMEM and CHO K-1 on HAM F-12 medium supplemented with 10% fetal bovine serum (FBS, Invitrogen, Karlsruhe, Germany), 1% antibiotic-antimitotic solution (100 units/mL penicillin G, 100 µg/mL streptomycin, and 0.25 µg/mL amphotericin B, Gibco, Grand Island, NY, USA), and 1% L-glutamine (2 mM, Gibco). The cells were incubated at 37 °C in a 5% CO2 atmosphere. The viable cells were counted using the trypan blue exclusion method in a hemocytometer.
(§2) The MTS (5-[3-(carboxymethoxy)phenyl]-3-(4,5-dimethyl-2-thiazolyl)-2-(4-sulfo- phenyl)-2H-tetrazolium inner salt) cell viability assay was used to assess the inhibitory effects of the extracts on the survival of human cancer cell lines. A total of 3–5 × 10^3 cells/well were seeded into 96-well plates and were allowed to adhere for 24 h. […] Each concentration/assay was performed three times. Dimethyl sulfoxide (DMSO) was used as a negative control at a final concentration of 0.1% v/v, and 1 µM Doxorubicin was used as a positive control. The cells were incubated with the treatments for 48 h, after which 20 µL MTS (5 mg/mL, Aqueous One Solution Reagent, Gibco) was added and further incubated for 4 h at 37 °C. The absorbance was measured at 570 nm. The data obtained with cells treated with DMSO were defined to represent 100% viability.

A further data set has as its system CHO-K1. Kind of data set: MTS cell viability assay on immortalized CHO-K1 cells. Conditions: 48 h, Dox 1 µM, mean ± SEM, NA = no activity, read-out: Percentage (%) of inhibition, CHO-K1. Type of data set: cell-based, hamster. Here is the method: as §1, §2
The test system of another data set is A-549. Kind of data set: MTS cell viability assay on A-549 cells. Type of data set: cell-based. Conditions: Homo sapiens, A549; 100 µM, 48 h; Dox 1 µM; mean ± SEM; NA = no activity; read-out: Percentage (%) of inhibition, A-549. Here is the method: as §1, §2
The test system of the next data set is PC-3. Kind of data set: MTS cell viability assay on PC-3 cells. Format: cell-based. Conditions: Homo sapiens, 100 µM, 48 h, Dox 1 µM, mean ± SEM, NA = no activity, read-out: Percentage (%) of inhibition, PC-3. Here is the method:
as §1, §2

The nature of data set [2]: DPPH radical scavenging assay. Conditions: 30 min, 515 nm. Here is the method: The stock solution of the compounds was prepared by dissolving 4 in dimethyl sulfoxide (DMSO) to a concentration of 4 mg/mL. The solution was diluted with methanol until a concentration of 400 µg/mL was obtained and then used immediately.
The experimental procedure was adapted from the literature. Briefly, 100 µL of a 0.2 mM methanol solution of DPPH (2, 2-diphenyl-1-picrylhydrazyl) radical were added to 100 µL of methanolic solutions of 4 prepared as serial two-fold dilutions from the stock solution in 96-well microfilter plates. Standards and edaravone were also prepared in the same concentrations. The mixture was incubated in dark at room temperature for 30 min and the absorbance was read at 515 nm on a Cytation 5 (BioTek) spectrophotometer.
The % DPPH scavenging activity was then calculated by using the following formula:(1) % DPPH scavenging = 100 × [(Asample+DPPH−Asample blank)/(ADPPH−Asolvent)]
The antioxidant activity of the compound was expressed as IC50, which is defined as the concentration that could scavenge 50% of the DPPH free radical. The IC50 values were calculated in GraphPad Prism 7.02 (GraphPad Software, Corp.) The results are given as a mean ± standard deviation (SD) of experiments done in triplicate.
On the technique in general: The DPPH test is a chemical assay of radical scavenging.

A further data set relates to RKO. Put plainly: MTS cell viability assay on RKO cells. Type of data set: cell-based. Conditions: Homo sapiens, 100 µM, 48 h, Dox 1 µM, mean ± SEM, NA = no activity, read-out: Percentage (%) of inhibition, RKO. Here is the method: as §1, §2
In another data set the test system is HeLa. Put plainly: MTS cell viability assay on HeLa cells. Format: cell-based. The note with it: Homo sapiens, 48 h, Dox 1 µM, mean ± SEM, NA = no activity, read-out: Percentage (%) of inhibition, HeLa.
The test system of data set [3] is promastigotes of Leishmania mexicana. Kind of data set: Leishmanicidal activity, MTT assay on promastigotes. Type of data set: cell-based. The note with it: for SI (Selectivity Index) = Citotoxic activity/Leishmanicidal activity: CC50 RAW / IC50 L. mexicana; for IC50: Leishmania mexicana. Here is the method:
The leishmanicidal activity of all compounds was evaluated by measuring promastigotes’ mitochondrial activity using MTT colorimetric assay as described previously. In this study, promastigotes from Leishmania mexicana were used. The species were confirmed by amplifying and sequencing cytochrome b gene. Promastigotes were cultured at 25 °C in Schneider’s Drosophila Medium (Gibco, Invitrogen, Carlsbad, CA, USA) supplemented with 10% fetal bovine serum (Eurobio, Les Ulis, France). The medium was renewed every third day. Parasite density was determined by counting the cells using a Neubauer chamber.
Into each well of a 96-well plate were dispensed 1 × 10^6 parasites/well. A stock solution of the compounds was prepared in DMSO (Sigma Aldrich, Saint Louis, MO, USA), and serial dilutions were added to the parasite suspension, leading to concentrations ranging from 100 to 0.001 µM, keeping the solvent concentration at 0.5%. The final volume was 200 µL for each well and triplicate conditions were carried out. Amphotericin B (Gibco) treatment (1 µM) untreated parasites and DMSO 0.5% were used as positive and negative controls, respectively. After exposure to the compounds for 48 h in culture medium, 20 µL of a solution of 5 mg/mL MTT dissolved in PBS were added to each well. The plate was incubated at 25 °C for 2 h in darkness. The plate was then centrifuged at 4400 rpm for 10 min and the culture medium was then aspirated; 50 µL of DMSO were added into each well to solubilize the formazan crystals and the plate was shaken for 5 min and then it was measured by recording changes in absorbance at 570 nm using a microplate reader Cytation 5 (BioTek) spectrophotometer. A reference wavelength of 630 nm was used as background subtraction. Optical densities were analyzed because the quantity of formazan is directly proportional to the number of viable parasites. Data were analyzed with the statistical software GraphPad Prism 7.02 (GraphPad Software, Corp.).

Data set [4] concerns Leishmania mexicana cells. Put plainly: Comet assay of Leishmania mexicana cells. The note with it: L. mexicana, 24 h at MIC; MMS 0.011%; Kruskal-Wallis $means. The arrangement: Comet tail length, mean (vary) / Comet tail length, median (Q50): unit not given here. Type of data set: cell-based. Here is the method:
We quantified DNA breaks by a comet assay to determine if these compounds are genotoxic. Here, L. mexicana cells were exposed for 24 h to MIC concentrations previously determined (see Materials and Methods Section) for each compound. Figure 1 represents the measurements obtained for tail length. All compounds generated DNA breaks expect 4s. […] Samples with DMSO and MMS (0.011%) were included as controls. Some representative pictures are shown at Figure S4. The effect of 4p could not be determined because the cells appear to be very damaged. The data was subjected via a Kruskal–Wallis one-way ANOVA (Statistical Analyses S2). […] These observations support a mechanism of action through the generation of DNA damage.
For leishmania, a method previously described for yeast was adapted. Briefly, after incubating the cells in presence of the compounds for 24 h, cells were collected and washed with buffer S (1 M sorbitol, 25 mM KH2PO4 in ultrapure water and adjust to pH 6.5 with NaOH). The pellet was resuspended in 400 µL of 1.5% LMA and 40 µL was spread (second layer) onto previously agarose-coated slides (first layer).
Slides were immersed in cold lysis buffer (30 mM NaOH, 1 M NaCl, 0.05 % (w/v) lauroylsarcosine, 50 mM EDTA, and 10 mM Tris–HCl, pH 10) for 25 min and then in cold electrophoresis alkaline buffer (30 mM NaOH, 10 mM EDTA, and 10 mM Tris–HCl, pH 10). They were then subjected to electrophoresis at 26V and 300 mA. Slides were immersed in neutralization buffer (10 mM Tris–HCl, pH 7.4; prepared in advance and stored at 4 °C) for 10 min at room temperature. The cells were then treated with proteinase K (20 min, 37 °C in humid chamber), followed by a new neutralization step. To dehydrate the slides, they were immersed in EtOH 90% and EtOH absolute for 10 min each. Finally, the slides were stained with Sybr Gold 1X.
The DNA migration was analyzed using a LEICA microscope with fluorescence (40×) by scoring 100 cells per slide in duplicate. The tail moment parameter was then analyzed by the Comet Score software.

[5] abbreviates: RAW cells, 48 h, MTT, read-out: Cytotoxicity CC50.
The mark [6] stands for this setting: read-out: IC50 original values, x.1 (Mean).
Setting [7] is: L. mexicana promastigotes, 48 h, MTT, read-out: Leishmanicidal Activity IC50.

Like-named read-outs stand apart in the source and are kept apart here.

For orientation: melting point means the temperature of the solid-liquid transition. Regarding `Cc1nn(-c2ccccc2)c(O)c1C(c1cc(O)ccc1[N+](=O)[O-])c1c(C)nn(-c2ccccc2)c1O`, the melting point was 205 to 207 °C (dec.).
Same read-out and setting: the same measure for `COC1C=C(C(c2c(C)nn(-c3ccccc3)c2O)c2c(C)nn(-c3ccccc3)c2O)C=CC1(O)OC` (stereo not drawn): 208 to 210 °C; for `CC1=NN(c2ccccc2)C(=O)C1=Cc1ccc(N(C)C)cc1`: 190.7 to 193.2 °C.
The molecule `CC1=NN(c2ccccc2)C(=O)C12CC21C(=O)N(c2ccccc2)N=C1C` (stereo not drawn) came in with a melting point of 165.8 to 167.9 °C.
In general, CC50 refers to the concentration giving 50% cytotoxicity. One may read the inhibition as the percentage by which the read-out fell short of the control. A word on the IC50: it is the concentration at which inhibition is half-maximal. In turn, `CC1=NN(c2ccccc2)C(=O)[C@@]12C(c1ccc(F)cc1)[C@@]21C(=O)N(c2ccccc2)N=C1C` (relative stereo) [4p, (5R*,6R*)-11-(4-Fluorophenyl)-4,10-dimethyl-2,8-diphenyl-2,3,8,9-tetraazadispiro[4.0.4.1]undeca-3,9-diene-1,7-dione] registered a melting point of 128.9 to 129.9 °C. The CC50 at 48 h in data set [1] (setting [5]) stood at 3.5 ± 0.9 µM. Besides, the CC50 at 48 h in data set [1] (Statistical Analyses S1, unrounded mean of CC50 in RAW cells, unit inferred, read-out: CC50 original values, x.1 (Mean)) is 3.55 µM. Besides, the inhibition at 100 µM with MCF-7 was 13.6 ± 2.55%. The inhibition at 100 µM in the data set on CHO-K1 worked out at 1.95 ± 1.42%. The inhibition at 100 µM in the data set on A-549 was 9.08 ± 1.14%. In addition, the inhibition at 100 µM with PC-3 was determined as 5.25 ± 2.6%. For the same molecule, in data set [2], the IC50 is more than 300 µM. Moreover, the inhibition at 100 µM in the data set on RKO came to 18.6 ± 1.37%. Also, in the data set with HeLa, the inhibition at 100 µM came out at 5.98 ± 2.19%. Also, in data set [3], the “SI (Selectivity Index) = Citotoxic activity/Leishmanicidal activity” value turned out to be 6.1. The IC50 in data set [3] (setting [6]) was determined as 0.575 µM. The IC50 in data set [3] (setting [7]) came to 0.57 ± 0.23 µM.
With `C[C@@H]1[C@H](O)[C@@H](C)/C=C/C=C/C=C/C=C/C=C/C=C/C=C/[C@H](O[C@@H]2O[C@H](C)[C@@H](O)[C@H](N)[C@@H]2O)C[C@@H]2O[C@](O)(C[C@@H](O)C[C@@H](O)[C@H](O)CC[C@@H](O)C[C@@H](O)CC(=O)O[C@H]1C)C[C@H](O)[C@H]2C(=O)O` [Ampho B, Amphotericin B, reference compound], the CC50 at 48 h in [1] (setting [5]) was more than 5.4 µM. In data set [3], the “SI (Selectivity Index) = Citotoxic activity/Leishmanicidal activity” value was more than 31.8. Also, the IC50 in data set [3] (setting [6]) is 0.172 µM; in data set [3] (setting [7]), 0.17 ± 0.07 µM.
Molecule `O=C1O[C@H]([C@@H](O)CO)C(O)=C1O` [Ascorbic acid, ascorbic acid, reference compound] gave an IC50 in data set [2] of 14 µM.
For the molecule `COS(C)(=O)=O` [MMS, methyl methanesulfonate, reference compound], in data set [4], the “Comet tail length, mean (vary)” value turned out to be 67050000 and the “Comet tail length, median (Q50)” value was 65000000.
